Test results published in the RepoRT retention time repository (doi:10.1016/j.jchromb.2020.122105).

Assays:
Details in all cases: stereoisomer not certain
[1] = RP, Waters CORTECS T3, 100 × 2.1 mm, 2.7 µm, 0.3 mL/min, estimated dead time 0.73 min; A: water + 0.1% formic acid, pH 3; B: methanol + 0.1% formic acid, pH 3; gradient (min/%B) 0/0 1/0 6/5 30/100 35/100 35.1/0 40/0
[2] = RP, Waters CORTECS T3, 100 × 2.1 mm, 2.7 µm, 0.15 mL/min, estimated dead time 1.5 min; A: water + 0.1% formic acid, pH 3; B: methanol + 0.1% formic acid, pH 3; gradient (min/%B) 0/5 5/5 25/95 25.1/100 35/100 35.1/5 45/5
[3] = RP, Waters ACQUITY UPLC BEH C18, 100 × 2.1 mm, 1.7 µm, 0.2 mL/min, estimated dead time 1.1 min; A: water + 0.025% formic acid + 20 mM ammonium acetate + 0.055% ammonium hydroxide, pH 7; B: methanol; gradient (min/%B) 0/5 5/5 25/100 30/100 30.1/5 35/5
[4] = RP, Waters CORTECS T3, 100 × 2.1 mm, 2.7 µm, 0.2 mL/min, estimated dead time 1.1 min; A: water + 0.1% formic acid, pH 3; B: methanol + 0.1% formic acid, pH 3; gradient (min/%B) 0/5 5/5 25/95 25.1/100 35/100 35.1/5 45/5
[5] = RP, Waters CORTECS T3, 100 × 2.1 mm, 2.7 µm, 0.25 mL/min, estimated dead time 0.88 min; A: water + 0.1% formic acid, pH 3; B: methanol + 0.1% formic acid, pH 3; gradient (min/%B) 0/5 5/5 25/95 25.1/100 35/100 35.1/5 45/5
[6] = HILIC, Merck SeQuant ZIC-HILIC, 150 × 2.1 mm, 5 µm, 0.75 mL/min, estimated dead time 0.44 min; A: water + 10 mM ammonium formate, pH 6; B: 5% water + 95% acetonitrile + 10 mM ammonium formate, pH 6; gradient (min/%B) 0/95 5/95 20/57 25/57 30/95 40/95
[7] = RP, Waters CORTECS T3, 100 × 2.1 mm, 2.7 µm, 0.3 mL/min, estimated dead time 0.73 min; A: water + 0.1% formic acid, pH 3; B: methanol + 0.1% formic acid, pH 3; gradient (min/%B) 0/5 5/5 25/95 25.1/100 35/100 35.1/5 45/5
[8] = HILIC, Merck SeQuant ZIC-HILIC, 150 × 2.1 mm, 5 µm, 0.75 mL/min, estimated dead time 0.44 min; A: water + 0.1% acetic acid + 10 mM ammonium acetate, pH 4; B: 5% water + 95% acetonitrile + 0.1% acetic acid + 10 mM ammonium acetate, pH 4; gradient (min/%B) 0/95 5/95 20/57 25/57 30/95 40/95
[9] = RP, Waters CORTECS T3, 100 × 2.1 mm, 2.7 µm, 0.1 mL/min, estimated dead time 2.2 min; A: water + 0.1% formic acid, pH 3; B: methanol + 0.1% formic acid, pH 3; gradient (min/%B) 0/0 1/0 6/5 30/100 35/100 35.1/0 40/0
[10] = RP, Waters ACQUITY UPLC BEH C18, 100 × 2.1 mm, 1.7 µm, 0.2 mL/min, estimated dead time 1.1 min; A: water + 0.1% formic acid, pH 3; B: methanol + 0.1% formic acid, pH 3; gradient (min/%B) 0/5 5/5 25/100 30/100 30.1/5 35/5
[11] = RP, Waters CORTECS T3, 100 × 2.1 mm, 2.7 µm, 0.2 mL/min, estimated dead time 1.1 min; A: water + 0.1% formic acid, pH 3; B: methanol + 0.1% formic acid, pH 3; gradient (min/%B) 0/0 1/0 6/5 30/100 35/100 35.1/0 40/0
[12] = RP, Waters CORTECS T3, 100 × 2.1 mm, 2.7 µm, 0.3 mL/min, estimated dead time 0.73 min; A: water + 0.1% formic acid, pH 3; B: methanol + 0.1% formic acid, pH 3; gradient (min/%B) 0/0 5/0 25/100 30/100 30.1/0 35/0
[13] = RP, Waters CORTECS T3, 100 × 2.1 mm, 2.7 µm, 0.3 mL/min, estimated dead time 0.73 min; A: water + 0.1% formic acid, pH 3; B: methanol + 0.1% formic acid, pH 3; gradient (min/%B) 0/0 1/0 6/5 30/100 35/100 35.1/0 40/0; remark: listed apart in the source
[14] = RP, Waters CORTECS T3, 100 × 2.1 mm, 2.7 µm, 0.3 mL/min, estimated dead time 0.73 min; A: water + 0.1% formic acid, pH 3; B: methanol + 0.1% formic acid, pH 3; gradient (min/%B) 0/5 5/5 25/100 30/100 30.1/5 35/5
[15] = RP, Waters ACQUITY UPLC BEH C18, 100 × 2.1 mm, 1.7 µm, 0.1 mL/min, estimated dead time 2.2 min; A: water + 0.1% formic acid, pH 3; B: methanol + 0.1% formic acid, pH 3; gradient (min/%B) 0/5 5/5 25/100 30/100 30.1/5 35/5
[16] = RP, Waters CORTECS T3, 100 × 2.1 mm, 2.7 µm, 0.25 mL/min, estimated dead time 0.88 min; A: water + 0.1% formic acid, pH 3; B: methanol + 0.1% formic acid, pH 3; gradient (min/%B) 0/0 1/0 6/5 30/100 35/100 35.1/0 40/0
[17] = RP, Waters CORTECS T3, 100 × 2.1 mm, 2.7 µm, 0.3 mL/min, estimated dead time 0.73 min; A: water + 0.1% formic acid, pH 3; B: methanol + 0.1% formic acid, pH 3; gradient (min/%B) 0/0 5/0 25/100 30/100 30.1/0 35/0; remark: listed apart in the source
[18] = RP, Waters CORTECS T3, 100 × 2.1 mm, 2.7 µm, 0.2 mL/min, estimated dead time 1.1 min; A: water + 0.1% formic acid, pH 3; B: methanol + 0.1% formic acid, pH 3; gradient (min/%B) 0/0 1/0 6/5 30/100 35/100 35.1/0 40/0; remark: listed apart in the source
[19] = RP, Waters CORTECS T3, 100 × 2.1 mm, 2.7 µm, 0.15 mL/min, estimated dead time 1.5 min; A: water + 0.1% formic acid, pH 3; B: methanol + 0.1% formic acid, pH 3; gradient (min/%B) 0/0 1/0 6/5 30/100 35/100 35.1/0 40/0
[20] = RP, Waters ACQUITY UPLC BEH C18, 100 × 2.1 mm, 1.7 µm, 0.1 mL/min, estimated dead time 2.2 min; A: water + 0.1% formic acid, pH 3; B: methanol + 0.1% formic acid, pH 3; gradient (min/%B) 0/5 5/5 25/95 25.1/100 35/100 35.1/5 45/5
[21] = HILIC, Waters XBridge BEH Amide, 100 × 2.1 mm, 2.5 µm, 0.5 mL/min, estimated dead time 0.44 min; A: water + 0.1% acetic acid + 10 mM ammonium acetate, pH 4; B: 5% water + 95% acetonitrile + 0.1% acetic acid + 10 mM ammonium acetate, pH 4; gradient (min/%B) 0/95 5/95 20/57 25/57 30/95 40/95
[22] = RP, Waters CORTECS T3, 100 × 2.1 mm, 2.7 µm, 0.1 mL/min, estimated dead time 2.2 min; A: water + 0.1% formic acid, pH 3; B: methanol + 0.1% formic acid, pH 3; gradient (min/%B) 0/5 5/5 25/95 25.1/100 35/100 35.1/5 45/5

| Compound | LC retention time [1] [min] | LC retention time [2] [min] | LC retention time [3] [min] | LC retention time [4] [min] | LC retention time [5] [min] | LC retention time [6] [min] | LC retention time [8] [min] | LC retention time [10] [min] | LC retention time [12] [min] | LC retention time [18] [min] | LC retention time [20] [min] | LC retention time [21] [min] | further results |
| --- | --- | --- | --- | --- | --- | --- | --- | --- | --- | --- | --- | --- | --- |
| Nc1nc2ncc(CNc3ccc(C(=O)NC(CCC(=O)O)C(=O)O)cc3)nc2c(=O)[nH]1 (stereo unspecified) [FOLIC ACID] | 12.2 | 12.6 | 1.36 | 15.9 | 11.1 | 14.9 | 14.4 | 11.2 | 11.4 | 13.2 |  |  | LC retention time [7]: 10.7 min; LC retention time [9]: 11.7 min; LC retention time [11]: 13.2 min; LC retention time [13]: 12.2 min; LC retention time [14]: 10.5 min; LC retention time [15]: 13.8 min; LC retention time [16]: 12.6 min; LC retention time [17]: 11.3 min |
| N[C@@H](Cc1ccc(O)c(O)c1)C(=O)O [3,4-DIHYDROXY-L-PHENYLALANINE] |  | 1.78 |  | 2.75 |  |  |  | 1.38 |  | 1.42 | 2.7 |  | LC retention time [7]: 0.9 min; LC retention time [19]: 1.87 min; LC retention time [11]: 1.38 min; LC retention time [13]: 0.92 min; LC retention time [14]: 0.93 min; LC retention time [15]: 2.74 min; LC retention time [16]: 1.13 min; LC retention time [17]: 0.93 min |
| CC(CCC(=O)O)C1CCC2C3C(O)CC4CC(O)CCC4(C)C3CC(O)C12C (stereo unspecified) [CHOLATE] | 25.4 | 24.7 | 19.6 | 29.8 | 22.9 |  |  | 22.9 | 21.9 |  |  |  |  |
| O=C(O)CCCCCCCCCCCO [OMEGA-HYDROXYDODECANOIC ACID] | 22.4 | 22.2 | 16.3 |  | 20.4 |  |  |  |  |  |  | 1.1 |  |
| O=c1ccn(C2OC(CO)C(O)C2O)c(=O)[nH]1 (stereo unspecified) [URIDINE] |  | 1.83 |  |  |  |  | 4.54 |  |  |  |  | 3.95 |  |
| CSCCC(NC(C)=O)C(=O)O (racemic) [N-ACETYL-DL-METHIONINE] | 8.96 | 10.4 | 2.97 | 14.3 | 7.94 |  |  | 9.48 | 9.23 | 10.6 | 13.3 | 8.06 |  |
| COc1cc(C=CC(=O)O)ccc1O [FERULATE] |  | 15.1 | 1.78 | 19.1 |  | 2.09 | 3.23 | 14.3 |  | 15.6 | 17.2 | 2.26 | LC retention time [19]: 16.9 min; LC retention time [22]: 17.2 min; LC retention time [13]: 14.1 min; LC retention time [14]: 12.3 min; LC retention time [16]: 14.8 min |
| CCOC(OCC)C(O)COP(=O)(O)O (stereo unspecified) [GLYCERALDEHYDE 3-PHOSPHATE DIETHYL ACETAL] | 6.25 | 7.38 | 1.41 | 12.2 |  |  |  |  |  | 8.23 |  |  |  |
| Nc1ccn(C2CC(O)C(COP(=O)(O)O)O2)c(=O)n1 (stereo unspecified) [2'-DEOXYCYTIDINE 5'-MONOPHOSPHATE] | 0.92 |  |  | 2.67 |  | 14.5 |  | 1.38 | 0.89 | 1.35 | 2.67 |  |  |
| CC(=O)N[C@@H](CC(=O)O)C(=O)O [N-ACETYL-L-ASPARTIC ACID] | 0.96 | 1.83 | 1.36 | 2.78 | 1.13 | 14 | 13.5 | 1.84 | 0.97 | 1.42 |  | 13.5 |  |
| Nc1ccn(C2OC(COP(=O)(O)OP(=O)(O)O)C(O)C2O)c(=O)n1 (stereo unspecified) [CYTIDINE 5'-DIPHOSPHATE] |  | 1.98 |  |  |  |  |  |  | 0.89 | 1.35 |  |  |  |
| CC(O)(CC(=O)O)C(=O)O (stereo unspecified) [CITRAMALATE] | 2.32 | 3.28 |  | 6.38 | 1.99 | 12.8 | 12.2 | 2.7 | 2.32 | 3.28 | 5.3 |  |  |
